From the NIST ThermoML archive (doi:10.1016/j.tca.2008.12.029)
± gives the expanded uncertainty stated by the source.

Assay: molar heat capacity at constant pressure
Settings: 101.33 kPa, Crystal, Vacuum adiabatic calorimetry

Compound: O=C([O-])c1ccccc1.[Na+] [sodium benzoate]
- molar heat capacity at constant pressure (78.86 K): 74.66 ± 0.47 J/K/mol
- molar heat capacity at constant pressure (80.43 K): 75.06 ± 0.47 J/K/mol
- molar heat capacity at constant pressure (82.62 K): 76.58 ± 0.48 J/K/mol
- molar heat capacity at constant pressure (84.79 K): 77.94 ± 0.49 J/K/mol
- molar heat capacity at constant pressure (87.06 K): 79 ± 0.49 J/K/mol
- molar heat capacity at constant pressure (89.08 K): 80.34 ± 0.5 J/K/mol
- molar heat capacity at constant pressure (91.16 K): 81.6 ± 0.53 J/K/mol
- molar heat capacity at constant pressure (93.24 K): 82.94 ± 0.54 J/K/mol
- molar heat capacity at constant pressure (95.32 K): 83.73 ± 0.54 J/K/mol
- molar heat capacity at constant pressure (97.26 K): 84.83 ± 0.55 J/K/mol
- molar heat capacity at constant pressure (99.2 K): 86.09 ± 0.56 J/K/mol
- molar heat capacity at constant pressure (101.14 K): 87.27 ± 0.56 J/K/mol
- molar heat capacity at constant pressure (103.01 K): 88.2 ± 0.57 J/K/mol
- molar heat capacity at constant pressure (104.89 K): 89.11 ± 0.57 J/K/mol
- molar heat capacity at constant pressure (106.3 K): 89.81 ± 0.58 J/K/mol
- molar heat capacity at constant pressure (107.72 K): 90.52 ± 0.58 J/K/mol
- molar heat capacity at constant pressure (109.44 K): 91.63 ± 0.59 J/K/mol
- molar heat capacity at constant pressure (111.32 K): 92.54 ± 0.59 J/K/mol
- molar heat capacity at constant pressure (113.05 K): 93.55 ± 0.6 J/K/mol
- molar heat capacity at constant pressure (114.93 K): 94.67 ± 0.6 J/K/mol
- molar heat capacity at constant pressure (116.5 K): 95.37 ± 0.61 J/K/mol
- molar heat capacity at constant pressure (118.38 K): 95.98 ± 0.61 J/K/mol
- molar heat capacity at constant pressure (120.05 K): 97.43 ± 0.62 J/K/mol
- molar heat capacity at constant pressure (122.61 K): 98.9 ± 0.63 J/K/mol
- molar heat capacity at constant pressure (126.31 K): 100.57 ± 0.64 J/K/mol
- molar heat capacity at constant pressure (129.87 K): 102.54 ± 0.65 J/K/mol
- molar heat capacity at constant pressure (133.42 K): 104.11 ± 0.66 J/K/mol
- molar heat capacity at constant pressure (137.05 K): 105.58 ± 0.67 J/K/mol
- molar heat capacity at constant pressure (140.25 K): 107.64 ± 0.68 J/K/mol
- molar heat capacity at constant pressure (143.52 K): 109.31 ± 0.69 J/K/mol
- molar heat capacity at constant pressure (146.93 K): 111.38 ± 0.7 J/K/mol
- molar heat capacity at constant pressure (150.2 K): 112.85 ± 0.71 J/K/mol
- molar heat capacity at constant pressure (153.61 K): 114.42 ± 0.72 J/K/mol
- molar heat capacity at constant pressure (156.74 K): 115.8 ± 0.73 J/K/mol
- molar heat capacity at constant pressure (159.94 K): 117.1 ± 0.74 J/K/mol
- molar heat capacity at constant pressure (163.08 K): 118.62 ± 0.75 J/K/mol
- molar heat capacity at constant pressure (166.41 K): 120.71 ± 0.76 J/K/mol
- molar heat capacity at constant pressure (169.54 K): 122.29 ± 0.77 J/K/mol
- molar heat capacity at constant pressure (172.67 K): 124.15 ± 0.78 J/K/mol
- molar heat capacity at constant pressure (175.8 K): 125.53 ± 0.79 J/K/mol
- molar heat capacity at constant pressure (178.78 K): 127.2 ± 0.8 J/K/mol
- molar heat capacity at constant pressure (182.05 K): 128.48 ± 0.81 J/K/mol
- molar heat capacity at constant pressure (186.18 K): 130.74 ± 0.82 J/K/mol
- molar heat capacity at constant pressure (190.73 K): 133.09 ± 0.83 J/K/mol
- molar heat capacity at constant pressure (194.71 K): 134.96 ± 0.84 J/K/mol
- molar heat capacity at constant pressure (198.69 K): 136.73 ± 0.85 J/K/mol
- molar heat capacity at constant pressure (202.67 K): 138.89 ± 0.87 J/K/mol
- molar heat capacity at constant pressure (206.65 K): 140.95 ± 0.88 J/K/mol
- molar heat capacity at constant pressure (210.78 K): 143.02 ± 0.89 J/K/mol
- molar heat capacity at constant pressure (214.62 K): 144.69 ± 0.9 J/K/mol
- molar heat capacity at constant pressure (218.6 K): 147.24 ± 0.92 J/K/mol
- molar heat capacity at constant pressure (222.72 K): 148.91 ± 0.93 J/K/mol
- molar heat capacity at constant pressure (226.56 K): 150.78 ± 0.94 J/K/mol
- molar heat capacity at constant pressure (230.54 K): 152.55 ± 0.95 J/K/mol
- molar heat capacity at constant pressure (234.67 K): 154.3 ± 0.96 J/K/mol
- molar heat capacity at constant pressure (238.65 K): 156.48 ± 0.97 J/K/mol
- molar heat capacity at constant pressure (242.63 K): 158.35 ± 0.98 J/K/mol
- molar heat capacity at constant pressure (247.75 K): 160.9 ± 1 J/K/mol
- molar heat capacity at constant pressure (252.79 K): 162.99 ± 1 J/K/mol
- molar heat capacity at constant pressure (256.71 K): 164.6 ± 1 J/K/mol
- molar heat capacity at constant pressure (260.69 K): 166.7 ± 1 J/K/mol
- molar heat capacity at constant pressure (264.71 K): 168.34 ± 1 J/K/mol
- molar heat capacity at constant pressure (268.8 K): 170.63 ± 1.1 J/K/mol
- molar heat capacity at constant pressure (272.92 K): 172.89 ± 1.1 J/K/mol
- molar heat capacity at constant pressure (276.9 K): 174.76 ± 1.1 J/K/mol
- molar heat capacity at constant pressure (280.74 K): 176.43 ± 1.1 J/K/mol
- molar heat capacity at constant pressure (284.72 K): 178.39 ± 1.1 J/K/mol
- molar heat capacity at constant pressure (288.7 K): 179.87 ± 1.1 J/K/mol
- molar heat capacity at constant pressure (292.69 K): 181.54 ± 1.1 J/K/mol
- molar heat capacity at constant pressure (295.1 K): 182.91 ± 1.1 J/K/mol
- molar heat capacity at constant pressure (298.37 K): 184.58 ± 1.1 J/K/mol
- molar heat capacity at constant pressure (301.36 K): 185.56 ± 1.1 J/K/mol
- molar heat capacity at constant pressure (304.35 K): 186.94 ± 1.1 J/K/mol
- molar heat capacity at constant pressure (307.33 K): 188.32 ± 1.2 J/K/mol
- molar heat capacity at constant pressure (310.32 K): 189.49 ± 1.2 J/K/mol
- molar heat capacity at constant pressure (313.3 K): 190.87 ± 1.2 J/K/mol
- molar heat capacity at constant pressure (316.29 K): 191.75 ± 1.2 J/K/mol
- molar heat capacity at constant pressure (319.28 K): 192.93 ± 1.2 J/K/mol
- molar heat capacity at constant pressure (322.12 K): 194.21 ± 1.2 J/K/mol
- molar heat capacity at constant pressure (325.11 K): 195.49 ± 1.2 J/K/mol
- molar heat capacity at constant pressure (327.81 K): 196.77 ± 1.2 J/K/mol
- molar heat capacity at constant pressure (329.51 K): 197.36 ± 1.2 J/K/mol
- molar heat capacity at constant pressure (332.93 K): 198.63 ± 1.2 J/K/mol
- molar heat capacity at constant pressure (335.35 K): 199.91 ± 1.2 J/K/mol
- molar heat capacity at constant pressure (338.05 K): 200.79 ± 1.2 J/K/mol
- molar heat capacity at constant pressure (340.89 K): 202.17 ± 1.2 J/K/mol
- molar heat capacity at constant pressure (343.88 K): 202.96 ± 1.2 J/K/mol
- molar heat capacity at constant pressure (346.72 K): 204.33 ± 1.3 J/K/mol
- molar heat capacity at constant pressure (349.42 K): 205.02 ± 1.3 J/K/mol
- molar heat capacity at constant pressure (352.27 K): 206.2 ± 1.3 J/K/mol
- molar heat capacity at constant pressure (355.25 K): 207.28 ± 1.3 J/K/mol
- molar heat capacity at constant pressure (358.1 K): 208.56 ± 1.3 J/K/mol
- molar heat capacity at constant pressure (360.85 K): 209.38 ± 1.3 J/K/mol
- molar heat capacity at constant pressure (363.79 K): 210.82 ± 1.3 J/K/mol
- molar heat capacity at constant pressure (366.63 K): 212.19 ± 1.3 J/K/mol
- molar heat capacity at constant pressure (369.62 K): 213.57 ± 1.3 J/K/mol
- molar heat capacity at constant pressure (372.46 K): 214.53 ± 1.3 J/K/mol
- molar heat capacity at constant pressure (375.3 K): 215.93 ± 1.3 J/K/mol
- molar heat capacity at constant pressure (378.15 K): 217.2 ± 1.3 J/K/mol
- molar heat capacity at constant pressure (380.99 K): 218.09 ± 1.3 J/K/mol
- molar heat capacity at constant pressure (383.98 K): 219.66 ± 1.4 J/K/mol
- molar heat capacity at constant pressure (386.68 K): 220.45 ± 1.4 J/K/mol
- molar heat capacity at constant pressure (389.52 K): 221.82 ± 1.4 J/K/mol
- molar heat capacity at constant pressure (392.37 K): 223.2 ± 1.4 J/K/mol
- molar heat capacity at constant pressure (395.21 K): 224.18 ± 1.4 J/K/mol
- molar heat capacity at constant pressure (397.91 K): 225.75 ± 1.4 J/K/mol
